Source: US20250101041A1, “POSITIVE ALLOSTERIC MODULATORS OF THE MUSCARINIC ACETYLCHOLINE RECEPTOR M4” (Vanderbilt University, priority 2022, published 2025)

Target: T1, human mAChR M4 (Homo sapiens, UniProt P08173)
T1 construct: expressed in transfected cells; host or cells: CHO-K1 (American Type Culture Collection), stably expressing hM4 and Gqi5
T1 sequence (P08173 1-479): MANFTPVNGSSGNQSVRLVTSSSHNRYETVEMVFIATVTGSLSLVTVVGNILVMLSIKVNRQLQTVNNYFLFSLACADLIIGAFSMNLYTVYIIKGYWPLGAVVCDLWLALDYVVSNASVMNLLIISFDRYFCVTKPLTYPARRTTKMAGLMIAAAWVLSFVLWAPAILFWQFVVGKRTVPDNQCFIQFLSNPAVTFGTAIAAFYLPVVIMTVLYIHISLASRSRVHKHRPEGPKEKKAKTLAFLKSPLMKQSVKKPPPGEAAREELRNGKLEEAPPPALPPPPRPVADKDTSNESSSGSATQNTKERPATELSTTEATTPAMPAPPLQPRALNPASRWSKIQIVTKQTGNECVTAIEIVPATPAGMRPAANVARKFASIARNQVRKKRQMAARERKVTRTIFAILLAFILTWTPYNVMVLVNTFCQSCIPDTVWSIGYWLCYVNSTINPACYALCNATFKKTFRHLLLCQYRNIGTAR
Test: mAChR M4 cell-based functional assay: calcium mobilization (Fluo-4, FDSS), potentiation of EC20 acetylcholine response in hM4-Gqi5 CHO-K1 cells
Settings: human M4; for Emax at 30 µM: CHO-K1, % ACh maximum at 30 μM; for EC50: potentiation of EC20 acetylcholine response, calcium mobilization
How it was run: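 Readout is the fluorescence-ratio rise at 1 Hz on FDSS, with PAM activity taken as concentration-dependent enhancement of the EC20 acetylcholine response, fitted four-parameter for EC50/Emax. hM4-Gqi5 CHO-K1 cells carried Fluo-4 AM dye; test compounds (11 points, 1:3) preceded EC20 acetylcholine additions at 144 s and 230 s.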

| Compound | Emax at 30 µM [%] | EC50 [nM] |
| --- | --- | --- |
| Cc1ccc(-c2cnc3c(c2)CN(c2nn4c(=O)c(C)cnc4cc2C)CC3)cn1 [Compound 1-86, 3,8-dimethyl-7-(3-(6-methylpyridin-3-yl)-7,8-dihydro-1,6-naphthyridin-6(5H)-yl)-4H-pyrimido[1,2-b]pyridazin-4-one] | 94 | 243 |
| Cc1c(N2CCc3ncc(-c4ccc(N(C)C)nc4)cc3C2)nn2c(=O)ccnc2c1C [Compound 1-89, 7-(3-(6-(dimethylamino)pyridin-3-yl)-7,8-dihydro-1,6-naphthyridin-6(5H)-yl)-8,9-dimethyl-4H-pyrimido[1,2-b]pyridazin-4-one] | 70 | 231 |
| Cc1c(N2CCc3ncc(-c4ccc(C(F)(F)F)nc4)cc3C2)nn2c(=O)ccnc2c1C [Compound 1-90, 8,9-dimethyl-7-(3-(6-(trifluoromethyl)pyridin-3-yl)-7,8-dihydro-1,6-naphthyridin-6(5H)-yl)-4H-pyrimido[1,2-b]pyridazin-4-one] | 87 | 669 |
| Cc1c(N2CCc3ncc(-c4ccc(N(C)C)nc4)cc3C2)nn2c(=O)cc(C(F)F)nc2c1C [Compound 1-92, 2-(difluoromethyl)-7-(3-(6-(dimethylamino)pyridin-3-yl)-7,8-dihydro-1,6-naphthyridin-6(5H)-yl)-8,9-dimethyl-4H-pyrimido[1,2-b]pyridazin-4-one] | 76 | 339 |
| Cc1c(N2CCc3ncc(-c4ccc(C(F)(F)F)nc4)cc3C2)nn2c(=O)cc(C(F)F)nc2c1C [Compound 1-93, 2-(difluoromethyl)-8,9-dimethyl-7-(3-(6-(trifluoromethyl)pyridin-3-yl)-7,8-dihydro-1,6-naphthyridin-6(5H)-yl)-4H-pyrimido[1,2-b]pyridazin-4-one] | 90 | 333 |
| Cc1c(N2CCc3ncc(-c4ccc(N5CCCCC5)nc4)cc3C2)nn2c(=O)ccnc2c1C [Compound 1-97, 8,9-dimethyl-7-(3-(6-(piperidin-1-yl)pyridin-3-yl)-7,8-dihydro-1,6-naphthyridin-6(5H)-yl)-4H-pyrimido[1,2-b]pyridazin-4-one] | 79 | 397 |
| Cc1c(N2CCc3ncc(-c4ccc(-n5ccnc5)nc4)cc3C2)nn2c(=O)ccnc2c1C [Compound 1-98, 7-(3-(6-(1H-imidazol-1-yl)pyridin-3-yl)-7,8-dihydro-1,6-naphthyridin-6(5H)-yl)-8,9-dimethyl-4H-pyrimido[1,2-b]pyridazin-4-one] | 86 | 534 |
| Cc1c(N2CCc3ncc(-c4ccc(N5CCOCC5)nc4)cc3C2)nn2c(=O)ccnc2c1C [Compound 1-99, 8,9-dimethyl-7-(3-(6-morpholinopyridin-3-yl)-7,8-dihydro-1,6-naphthyridin-6(5H)-yl)-4H-pyrimido[1,2-b]pyridazin-4-one] | 88 | 190 |
| Cc1ccc(-c2cnc3c(c2)CN(c2nn4c(=O)c(C)cnc4c(C)c2C)CC3)cn1 [Compound 1-100, 3,8,9-trimethyl-7-(3-(6-methylpyridin-3-yl)-7,8-dihydro-1,6-naphthyridin-6(5H)-yl)-4H-pyrimido[1,2-b]pyridazin-4-one] | 92 | 134 |
| Cc1ncccc1-c1cnc2c(c1)CN(c1nn3c(=O)ccnc3c(C)c1C)CC2 [Compound 1-101, 8,9-dimethyl-7-(3-(2-methylpyridin-3-yl)-7,8-dihydro-1,6-naphthyridin-6(5H)-yl)-4H-pyrimido[1,2-b]pyridazin-4-one] | 93 | 332 |
| Cc1c(N2CCc3ncc(-c4cncc(C(F)(F)F)c4)cc3C2)nn2c(=O)ccnc2c1C [Compound 1-102, 8,9-dimethyl-7-(3-(5-(trifluoromethyl)pyridin-3-yl)-7,8-dihydro-1,6-naphthyridin-6(5H)-yl)-4H-pyrimido[1,2-b]pyridazin-4-one] | 83 | 733 |
| Cc1c(N2CCc3ncc(-c4cncc(F)c4)cc3C2)nn2c(=O)ccnc2c1C [Compound 1-103, 7-(3-(5-fluoropyridin-3-yl)-7,8-dihydro-1,6-naphthyridin-6(5H)-yl)-8,9-dimethyl-4H-pyrimido[1,2-b]pyridazin-4-one] | 93 | 449 |
| Cc1c(N2CCc3ncc(-c4cncnc4)cc3C2)nn2c(=O)ccnc2c1C [Compound 1-104, 8,9-dimethyl-7-(3-(pyrimidin-5-yl)-7,8-dihydro-1,6-naphthyridin-6(5H)-yl)-4H-pyrimido[1,2-b]pyridazin-4-one] | 90 | 696 |
| CCc1cc(=O)n2nc(N3CCc4ncc(C(F)(F)F)cc4C3)c(C)c(C)c2n1 [Compound 1-105, 2-ethyl-8,9-dimethyl-7-(3-(trifluoromethyl)-7,8-dihydro-1,6-naphthyridin-6(5H)-yl)-4H-pyrimido[1,2-b]pyridazin-4-one] | 99 | 162 |
| Cc1c(N2CCc3ncc(C(F)(F)F)cc3C2)nn2c(=O)cc(C(C)C)nc2c1C [Compound 1-107, 2-isopropyl-8,9-dimethyl-7-(3-(trifluoromethyl)-7,8-dihydro-1,6-naphthyridin-6(5H)-yl)-4H-pyrimido[1,2-b]pyridazin-4-one] | 102 | 178 |
| Cc1ccc(-c2cnc3c(c2)CN(c2nn4c(=O)cc(C(C)C)nc4c(C)c2C)CC3)cn1 [Compound 1-108, 2-isopropyl-8,9-dimethyl-7-(3-(6-methylpyridin-3-yl)-7,8-dihydro-1,6-naphthyridin-6(5H)-yl)-4H-pyrimido[1,2-b]pyridazin-4-one] | 94 | 158 |
| COCc1cc(=O)n2nc(N3CCc4ncc(-c5ccc(C)nc5)cc4C3)c(C)c(C)c2n1 [Compound 1-110, 2-(methoxymethyl)-8,9-dimethyl-7-(3-(6-methylpyridin-3-yl)-7,8-dihydro-1,6-naphthyridin-6(5H)-yl)-4H-pyrimido[1,2-b]pyridazin-4-one] | 95 | 177 |

Now those with a lower EC50, led by results:

| Emax at 30 µM [%] | EC50 [nM] | Compound |
| --- | --- | --- |
| 103 | 127 | Cc1ccc(-c2cnc3c(c2)CN(c2nn4c(=O)cc(C(F)F)nc4c(C)c2C)CC3)cn1 [Compound 1-85, 2-(difluoromethyl)-8,9-dimethyl-7-(3-(6-methylpyridin-3-yl)-7,8-dihydro-1,6-naphthyridin-6(5H)-yl)-4H-pyrimido[1,2-b]pyridazin-4-one] |
| 82 | 128 | Cc1c(N2CCc3ncc(-c4ccc(F)nc4)cc3C2)nn2c(=O)ccnc2c1C [Compound 1-87, 7-(3-(6-Fluoropyridin-3-yl)-7,8-dihydro-1,6-naphthyridin-6(5H)-yl)-8,9-dimethyl-4H-pyrimido[1,2-b]pyridazin-4-one] |
| 83 | 97 | Cc1ccc(-c2cnc3c(c2)CN(c2nn4c(=O)c(Br)cnc4c(C)c2C)CC3)cn1 [Compound 1-88, 3-bromo-8,9-dimethyl-7-(3-(6-methylpyridin-3-yl)-7,8-dihydro-1,6-naphthyridin-6(5H)-yl)-4H-pyrimido[1,2-b]pyridazin-4-one] |
| 83 | 127 | Cc1c(N2CCc3ncc(-c4ccc(C5CC5)nc4)cc3C2)nn2c(=O)ccnc2c1C [Compound 1-91, 7-(3-(6-Cyclopropylpyridin-3-yl)-7,8-dihydro-1,6-naphthyridin-6(5H)-yl)-8,9-dimethyl-4H-pyrimido[1,2-b]pyridazin-4-one] |
| 79 | 122 | Cc1c(N2CCc3ncc(-c4ccc(C5CC5)nc4)cc3C2)nn2c(=O)cc(C(F)F)nc2c1C [Compound 1-94, 7-(3-(6-cyclopropylpyridin-3-yl)-7,8-dihydro-1,6-naphthyridin-6(5H)-yl)-2-(difluoromethyl)-8,9-dimethyl-4H-pyrimido[1,2-b]pyridazin-4-one] |
| 99 | 68 | Cc1ccncc1-c1cnc2c(c1)CN(c1nn3c(=O)ccnc3c(C)c1C)CC2 [Compound 1-95, 8,9-dimethyl-7-(3-(4-methylpyridin-3-yl)-7,8-dihydro-1,6-naphthyridin-6(5H)-yl)-4H-pyrimido[1,2-b]pyridazin-4-one] |
| 63 | 37 | CCc1ccncc1-c1cnc2c(c1)CN(c1nn3c(=O)ccnc3c(C)c1C)CC2 [Compound 1-96, 7-(3-(4-ethylpyridin-3-yl)-7,8-dihydro-1,6-naphthyridin-6(5H)-yl)-8,9-dimethyl-4H-pyrimido[1,2-b]pyridazin-4-one] |
| 104 | 108 | CCc1cc(=O)n2nc(N3CCc4ncc(-c5ccc(C)nc5)cc4C3)c(C)c(C)c2n1 [Compound 1-106, 2-ethyl-8,9-dimethyl-7-(3-(6-methylpyridin-3-yl)-7,8-dihydro-1,6-naphthyridin-6(5H)-yl)-4H-pyrimido[1,2-b]pyridazin-4-one] |
| 79 | 60 | COCc1cc(=O)n2nc(N3CCc4ncc(C(F)(F)F)cc4C3)c(C)c(C)c2n1 [Compound 1-109, 2-(Methoxymethyl)-8,9-dimethyl-7-(3-(trifluoromethyl)-7,8-dihydro-1,6-naphthyridin-6(5H)-yl)-4H-pyrimido[1,2-b]pyridazin-4-one] |
